Results on 3 molecules are retold here after patent publication US20250099485A1, “COMPOSITIONS FOR PROMOTING HAIR GROWTH” (ESTETRA SRL, priority 2021, published 2025).

The test system of data set [1] is mouse lymphoma cell line L5178Y TK^+/−. Description: Generation of reactive oxygen species (ROS). The class given is cell-based. The settings on record: up to 100 μM, 3 h exposure, vs vehicle control. As to the method: The objective of the study was to investigate the generation of reactive oxygen species (ROS) induced by the test item, estetrol (E4), in a mouse lymphoma cell line L5178Y TK^+/−.
L5178Y TK^+/− cells in logarithmic phase of growth were plated in black 96 well cell culture plates at 1×10^4 cells in 90 μL of cell culture media. Controls and test item in triplicate were applied to the cells as a 10× concentrate in 10 μL of a 10% ethanol solution in PBS (final concentration of ethanol on plate was 1%). Cells were incubated for 3 hours at 37° C., 5% CO2, and the generation of ROS was evaluated by fluorescence with a ROS reagent: the ROS reagent was freshly prepared by dissolving one ampoule of reagent (50 μg) in 70 μL DMSO and further diluting this with 2.1 mL of pre-warmed PBS. 10 μL of ROS reagent was added to each well and the plate were shaken for 30 seconds in the dark. The plates were incubated approximately at 37° C., 5% CO2 for 1 h 30 min and fluorescence was read on a plate scanner with excitation at 492 nm and emission at 520 nm.

Data set [2] in a line: Tissue distribution of radioactivity by quantitative whole body autoradiography, non-pigmented rats. To be noted: female non-pigmented rats; for Concentration of radioactivity in tissue, Skin: Non-pigmented / Tissue: Blood ratio, Skin: Non-pigmented: single oral 15 mg/kg. The class given is in vivo, rat (female Sprague-Dawley). As to the method:
Times for analysis were: 0.5, 1, 2, 5, 8, 24 and 48 hours.
Distribution of radioactivity in tissues was determined and quantified using the Fuji FLA-5100 fluorescent image analyser and associated Tina and SeeScan software. Tissue concentrations of radioactivity were determined using calibrated autoradiographic microscales produced by GE Healthcare. A standard curve was produced using the microscales from which tissue concentrations of radioactivity were determined (nCi/g). These values were then converted into pg equivalents/g using the specific activity of the dose formulation.
Radioactivity concentrations are also reported as μg equivalents/g.

The nature of data set [3]: Tissue distribution of radioactivity by quantitative whole body autoradiography, partially pigmented rats. To be noted: female partially pigmented rats; for Concentration of radioactivity in tissue, Skin: Non-pigmented / Concentration of radioactivity in tissue, Skin: Pigmented / Tissue: Blood ratio, Skin: Non-pigmented / Tissue: Blood ratio, Skin: Pigmented / Total amount of radioactivity in tissue, Skin (non-pigmented) / Total amount of radioactivity in tissue, Skin (pigmented): single oral 15 mg/kg.
Experimental: Tissue distribution was determined in female rats (partially pigmented and non-pigmented) using [^14C]-estetrol.
A group of six female Lister Hooded rats each received a single oral dose of [^14C]-estetrol. At each selected time (see below) one animal was killed (by overdose of CO2) followed by immediate snap freezing in hexane/solid CO2. The carcasses were retained for examination of the tissue distribution of radioactivity using the technique of quantitative whole body autoradiography (QWBA).
Times for analysis were: (0.5, 8, and 24 hours, 7, 14 and 35 days).
Frozen carcasses were subjected to whole-body autoradiography.
Where concentrations are reported, radioactivity was assumed to be associated with [^14C]-estetrol or any metabolic products derived from [^14C]-estetrol. The specific activities of the dosed test compounds were used for the calculation of concentrations in all cases. Recoveries of radioactivity are reported as percentage of administered radioactivity (% dose). Radioactivity concentrations are also reported as μg equivalents/g.

Data set [4] deals with Normal Human Dermal Fibroblasts (NHDFs). The data set is described as follows: Colonization of acellular area (IBIDI gap closure), fibroblasts. To be noted: 10 ng/ml, both in presence and absence of MMC. The class given is cell-based. As to the method:
The study consists in an in vitro assay aiming to evaluate the properties of E4 and E2 at 4 concentrations each on keratinocytes and fibroblasts. In this assay, the measurement of the colonization of a standard acellular surface generated from a confluent monolayer of cells using a dedicated culture device (IBIDI chamber) is performed. The assay is performed in absence and in presence of a proliferation inhibitor to focus on cell proliferation and migration or on migration only, respectively.
Normal Human foreskin-derived Dermal Fibroblast (NHDFs, ATCC) cells were grown in phenol-free Dulbecco's Modified Eagle Medium (DMEM, ThermoFisher Scientific) supplemented with 10% of Foetal Bovine Serum (FBS, ThermoFisher Scientific), L-glutamine and antibiotics. The cells were maintained in a humidified incubator at 37° C. with a 5% CO2 atmosphere.
Cells were plated in 2-well silicone inserts with a defined cell free gap (IBIDI chambers; IBIDI GmbH, 80209) that was previously inserted on 12-well culture plates. This culture device allows to create a standardized 500 μm±100 μm cell free gap for monitoring cell colonization. 24 h after seeding, when the culture reached high confluency, cells in the insert were treated, or not, with mitomycin C (MMC) at 10 μg/ml during 2 h. After these 2 hours, the insert was removed, and cells were treated with E2 or E4 in presence or not of MMC for additional 2 h. Then, if appropriate, the culture medium was removed and cells were treated with E2 or E4 for 22 h, in absence of MMC.
For the assay, keratinocytes were plated in Epilife medium without HKGS and all the treatments were performed in this medium. Fibroblasts were plated in DMEM medium containing only 2.5% of FBS and the treatments were performed in absence of FBS.
E2 and E4 were applied at 4 concentrations each (10^−7M, 10^−8M, 10^−9M, 10^−10M). In parallel, cells were treated with a positive control (HKGS 1% for human keratinocytes and PDGF-BB at 10 ng/ml for human fibroblasts).
To monitor cell colonization and to evaluate the gap closure rate, pictures of the gap were taken after different times: at time 0 h, corresponding to the beginning of the treatment with E2 or E4 and to the removal of the culture insert, at time 6 h and at time 24 h (corresponding to the end of the treatments with E2 or E4). Pictures were taken with a microscope Zeiss (Axiover 25-10× objective) and with a camera Invenio2EIII (DeltaPix—Lux-Optic). The colonized areas were quantified from the pictures by the use of the WimAsis platform—WimScratch software. For each insert, 3 pictures were taken at each time. As each condition was performed in triplicates, it means a total of 9 pictures per condition and per time point of acquisition

As to `OO` [hydrogen peroxide, reference compound], the “levels of ROS, positive control” value in data set [1] was “tendency to increase the levels of ROS”.
[^14C]-estetrol: the “Concentration of radioactivity in tissue, Skin: Non-pigmented” value (“Concentration … Non-pigmented” below) is listed as 2.59 microgram equivalents/gram in data set [2] (0.5 hours); 0.771 microgram equivalents/gram in data set [2] (1 hour); 0.465 microgram equivalents/gram in data set [2] (2 hours); 0.189 microgram equivalents/gram in data set [2] (5 hours); 0.361 microgram equivalents/gram in data set [2] (8 hours); “BLQ” in data set [2] (24 hours). The “Concentration … Non-pigmented” value in data set [2] (48 hours) is listed as “BLQ”; in data set [3] (0.5 hours) it was 1.89 microgram equivalents/gram; in data set [3] (8 hours) it was 0.090 microgram equivalents/gram; in data set [3] (24 hours) it was “BLQ”; in data set [3] (7 days), “BLQ”; in data set [3] (14 days), “BLQ”. For the same molecule, in data set [3] (35 days), the “Concentration … Non-pigmented” value is “BLQ”. For the same molecule, the “Tissue: Blood ratio, Skin: Non-pigmented” value in data set [2] (0.5 hours) is recorded as 1.05; in data set [2] (1 hour), 0.99; in data set [2] (2 hours), 1.72; in data set [2] (5 hours), 1.66; in data set [2] (8 hours) it was 1.77; in data set [3] (0.5 hours) it was 0.71. Besides, the “Tissue: Blood ratio, Skin: Non-pigmented” value in data set [3] (8 hours) came to 0.66. Also, the “Concentration of radioactivity in the liver (greatest concentration)” value in data set [2] (single oral dose, 0.5 hours) was 12.5 μg equivalents/g; in data set [3] (single oral dose, 0.5 hours) it was 13.7 μg equivalents/g. In addition, the “Concentration of radioactivity in tissue, Skin: Pigmented” value in data set [3] (0.5 hours) is given as 2.85 microgram equivalents/gram; in data set [3] (8 hours), 0.163 microgram equivalents/gram; in data set [3] (24 hours), 0.113 microgram equivalents/gram; in data set [3] (7 days), “BLQ”; in data set [3] (14 days), “BLQ”; in data set [3] (35 days), “BLQ”. The “Tissue: Blood ratio, Skin: Pigmented” value in data set [3] (0.5 hours) was 1.07; in data set [3] (8 hours), 1.03. The “Total amount of radioactivity in tissue, Skin (non-pigmented)” value is reported as 1.136 % dose administered/tissue in data set [3] (0.5 hours); 0.059 % dose administered/tissue in data set [3] (8 hours); <0.041 % dose administered/tissue in data set [3] (24 hours); <0.043 % dose administered/tissue in data set [3] (7 days); <0.038 % dose administered/tissue in data set [3] (14 days); <0.041 % dose administered/tissue in data set [3] (35 days). The “Total amount of radioactivity in tissue, Skin (pigmented)” value is reported as 1.714 % dose administered/tissue in data set [3] (0.5 hours); 0.099 % dose administered/tissue in data set [3] (8 hours); 0.061 % dose administered/tissue in data set [3] (24 hours); <0.043 % dose administered/tissue in data set [3] (7 days); <0.038 % dose administered/tissue in data set [3] (14 days); <0.041 % dose administered/tissue in data set [3] (35 days). Also, the “Concentration of radioactivity in the liver” value in data set [3] (single oral dose, 7 days after dosing) is listed as 0.410 μg equivalents/g. The “Concentration of radioactivity, majority of tissues (BLQ)” value in data set [3] (single oral dose, by 24 hours) is given as less than 0.076 μg equivalents/g.

B1: PDGF-BB: positive control at 10 ng/ml for human fibroblasts (protein, UniProt P01127 82-190, looked up)
Platelet-derived growth …: SLGSLTIAEPAMIAECKTRTEVFEISRRLIDRTNANFLVWPPCVEVQRCSGCCNNRNVQCRPTQVQLRPVQVRKIEIVRKKPIFKKATVTLEDHLACKCETVAAARPVT
For B1, the “NHDF colonized area, positive reference” value in data set [4] is recorded as “significantly increases the colonized area”.
